Laboratory results: patent US20240327331A1, “ESTERS OF 7-COOH CBD DERIVATIVES AND THEIR USE AS PREVENTION, PROPHYLAXIS OF PROGRESSION, AND/OR TREATMENT OF NEUROGENERATIVE DISEASES” (Receptor Pharma INC, priority 2021, published 2024)

Tests used:
GPR3 receptor [1] = target: T1, GPR3 receptor (Homo sapiens, UniProt P46089); assay: PathHunter β-arrestin2 recruitment assay in CHO-K1 cells expressing GPR3-PK; type: cell-based; set-up: host or cells: CHO-K1 (PathHunter eXpress kit); conditions: for mode of action at the GPR3 receptor (β-arrestin2 recruitment): 0.1 μM, 1 μM and 10 μM, FIG. 1
T1 sequence (P46089 whole entry): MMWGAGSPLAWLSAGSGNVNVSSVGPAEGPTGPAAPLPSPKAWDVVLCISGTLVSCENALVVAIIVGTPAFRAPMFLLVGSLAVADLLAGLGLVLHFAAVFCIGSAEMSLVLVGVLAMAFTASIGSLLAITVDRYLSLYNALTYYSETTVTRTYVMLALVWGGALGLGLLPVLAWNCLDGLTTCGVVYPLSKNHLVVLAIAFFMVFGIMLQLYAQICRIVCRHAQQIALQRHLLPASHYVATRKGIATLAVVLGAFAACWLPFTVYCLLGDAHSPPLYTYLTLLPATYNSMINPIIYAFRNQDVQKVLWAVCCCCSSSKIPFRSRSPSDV
Source text: The PathHunter™ eXpress kits containing Chinese hamster ovary (CHO)-K1 cells co-expressing EA-O-arrestin2 human and GPR3-PK were purchased from DiscoverX (Fremont, CA). All cannabinoid ligands were purchased from BDG Synthesis (Wellington, New Zealand).
PathHunter™ eXpress kits were used to measure GPR3-mediated β-arrestin2 recruitment following manufacturer's instructions. In this system, Chinese hamster ovary (CHO)-K1 cell line are stably expressing the GPR3 receptors which were fused to a “ProLink (PK)” fragment of βi-galactosidase to form GPR3-PK. The remaining sequence of β-galactosidase enzyme acceptor (EA) was linked to β-arrestin2 to form EA-β-arrestin2. Recruitment of Si-arrestin2 by receptor activation causes complementation of the two enzyme fragments. Levels of the active enzyme are the direct result of β-arrestin2 recruitment caused by receptor activation and quantified using the PathHunter detection reagent containing β-galactosidase substrates. Cells were plated in DiscoverX cell plating reagent1 in 384-well plates and cultured for 24-48 hours prior to experimentation in a humidified atmosphere at 37° C. and 5% CO2. Cannabinoid ligands were diluted in DiscoverX cell plating reagent1. Cells were then incubated with ligand at 37° C. following manufacturer's recommendations, followed by incubation with detection reagent in the dark for 1 hour at 23° C. Luminescence signal was then detected using a TECAN GENios Pro microplate reader.
Ligand-induced changes in R-arrestin2 recruitment to GPR3 were expressed as percent basal relative luminescence units, which was calculated by dividing luminescence readings in the presence of ligands by basal luminescence readings, times 100. Concentration-response curves were generated by performing nonlinear regression analysis using GraphPad Prism (GraphPad Software, La Jolla, CA). Data were analyzed using one-way analysis of variance (ANOVA) followed by NewmanKeuls post-test. Data points shown are presented as mean±SEM, and were obtained from three independent experiments performed in quadruplicate.
To determine whether CBD and its human metabolites 6-OH-CBD, 7-OH-CBD and 7-COOH-CBD are capable of changing S3-arrestin2 recruitment to GPR3, β-arrestin2 recruitment assays were performed using 0.1 μM and 1 μM and 10 μM concentrations.

GPR3 receptor [2] = target: T1, GPR3 receptor; conditions: cited from earlier work; for mode of action at the GPR3 receptor: Laun and Song 2017, Lunn et al 2006
[3] = tested on: CB1 and CB2 receptors as well as the voltage gated Na channel and mono-amine transporters; conditions: physiological relevant concentrations; cited from earlier work
[4] = tested on: icv streptozotocin (stz) rat model of Alzheimer Disease; assay: Novel object recognition test in icv streptozotocin rat model of Alzheimer Disease; type: in vivo, Wistar rats; conditions: STZ 3 mg/kg icv, daily treatment 8 days, test after 24 h; 1j 25 mg/kg ip, 7-COOH-CBD 20 mg/kg; N=6
Source text: This in vivo model represents a model for the most frequent form of Alzheimer Disease, the late onset or ‘sporadic’ form. The icv injection of stz in the rat brain induces pathological changes that are observed in patients with Alzheimer Disease, like accumulation of beta-amyloid and Tau-protein and the well-known cognitive impairment. This well-known model was first described in the 90-ies by Mayer et al. (1990) and Lannert et al. (1998). The procedure for the creation of the model has recently been described in detail by Moreiro-Silva et al. (2019). In short, a 1-3 mg/kg dose of stz is injected bilateraly by icv injection in Wistar rats, and the animals are allowed to recover for a period of 7 days, after which animals can be evaluated for neurodegenerative changes in behaviour and/or by imaging of the brain.
The novel object recognition data were analyzed using the Student's t-test, with differences being considered significant if p<0.05.
On day 8, the animals were subjected to the novel object recognition (NOR) behavioural test. All objects used for the is test had similar textures, colors, and sizes but distinctive shapes. The rats were placed in a rectangular arena (76×49×57 cm) containing two identical objects (A1+A2) for the habituation and training phase. […] The discrimination index was calculated by: […]

[5] = tested on: animal models of epilepsy; conditions: cited from earlier work
[6] = after CBD, in the body; cited from earlier work

| Molecule | mode of action at the GPR3 receptor (β-arrestin2 recruitment) (GPR3 receptor [1]) | mode of action at the GPR3 receptor (GPR3 receptor [2]) | long-term memory index (discrimination index), novel object recognition [4] | anticonvulsant action [5] | further results |
| --- | --- | --- | --- | --- | --- |
| C=C(C)[C@@H]1CCC(C)=C[C@H]1c1c(O)cc(CCCCC)cc1O [CBD, Cannabidiol] | inverse agonist | inverse agonist |  |  | IC50 (GPR3 receptor [2]; inverse agonism): 1220 nM; inhibition of GPR3 receptor activity (GPR3 receptor [2]; inverse agonist, dose-dependent): 39% |
| C=C(C)[C@@H]1C[C@H](O)C(C)=C[C@H]1c1c(O)cc(CCCCC)cc1O [Example 6-OH-CBD] | weak agonists |  |  |  |  |
| C=C(C)[C@@H]1CCC(C(=O)O)=C[C@H]1c1c(O)cc(CCCCC)cc1O [Example 7-COOH-CBD, (3R-trans)-3-(2,6-dihydroxy-4-pentylphenyl)-4-(1-methylethenyl)-1-cyclohexene-1-carboxylic acid] | full antagonist |  | 79.6±3.4 | devoid of any anticonvulsant action | binding or modulation in in vitro binding/target panel [3]: no binding or modulation properties; competition with SR144528 at the GPR3 binding site (GPR3 receptor [1]; 10 μM 7-COOH-CBD, ascending concentrations of SR144528): displaces the inverse agonist from the GPR3 binding site; plasma levels of metabolite relative to parent compound CBD [6]: up to 50 fold |
| C=C(C)[C@@H]1CCC(CO)=C[C@H]1c1c(O)cc(CCCCC)cc1O [Example 7-OH-CBD, 7-hydroxy-CBD] | weak agonists |  |  | equipotency to CBD | plasma levels of metabolite relative to plasma levels of parent compound CBD [6]: about 50% |
| COc1ccc(S(=O)(=O)c2cc(OC)ccc2S(=O)(=O)c2ccc([C@H](C)NS(C)(=O)=O)cc2)cc1 [Sch.336, N-[1(S)-[4-[[4-methoxy-2-[(4-methoxyphenyl)sulfonyl]phenyl]-sulfonyl]phenyl]ethyl]methanesulfonamide] |  | inverse agonist |  |  |  |
| (3R-trans)-3-(2,6-dihydroxy-4-pentylphenyl)-4-(1-methylethenyl)-1-cyclohexene-1-carboxylic acid cyclopropane ester [Example 1j] |  |  | 80.5±3.9 |  |  |
